Results on 21 compounds are retold here after patent US20100267706A1, “Compounds, Compositions and Methods Comprising Pyridazine Derivatives” (Institute for OneWorld Health, priority 2009, published 2010).

T1 sequence (P13569 whole entry): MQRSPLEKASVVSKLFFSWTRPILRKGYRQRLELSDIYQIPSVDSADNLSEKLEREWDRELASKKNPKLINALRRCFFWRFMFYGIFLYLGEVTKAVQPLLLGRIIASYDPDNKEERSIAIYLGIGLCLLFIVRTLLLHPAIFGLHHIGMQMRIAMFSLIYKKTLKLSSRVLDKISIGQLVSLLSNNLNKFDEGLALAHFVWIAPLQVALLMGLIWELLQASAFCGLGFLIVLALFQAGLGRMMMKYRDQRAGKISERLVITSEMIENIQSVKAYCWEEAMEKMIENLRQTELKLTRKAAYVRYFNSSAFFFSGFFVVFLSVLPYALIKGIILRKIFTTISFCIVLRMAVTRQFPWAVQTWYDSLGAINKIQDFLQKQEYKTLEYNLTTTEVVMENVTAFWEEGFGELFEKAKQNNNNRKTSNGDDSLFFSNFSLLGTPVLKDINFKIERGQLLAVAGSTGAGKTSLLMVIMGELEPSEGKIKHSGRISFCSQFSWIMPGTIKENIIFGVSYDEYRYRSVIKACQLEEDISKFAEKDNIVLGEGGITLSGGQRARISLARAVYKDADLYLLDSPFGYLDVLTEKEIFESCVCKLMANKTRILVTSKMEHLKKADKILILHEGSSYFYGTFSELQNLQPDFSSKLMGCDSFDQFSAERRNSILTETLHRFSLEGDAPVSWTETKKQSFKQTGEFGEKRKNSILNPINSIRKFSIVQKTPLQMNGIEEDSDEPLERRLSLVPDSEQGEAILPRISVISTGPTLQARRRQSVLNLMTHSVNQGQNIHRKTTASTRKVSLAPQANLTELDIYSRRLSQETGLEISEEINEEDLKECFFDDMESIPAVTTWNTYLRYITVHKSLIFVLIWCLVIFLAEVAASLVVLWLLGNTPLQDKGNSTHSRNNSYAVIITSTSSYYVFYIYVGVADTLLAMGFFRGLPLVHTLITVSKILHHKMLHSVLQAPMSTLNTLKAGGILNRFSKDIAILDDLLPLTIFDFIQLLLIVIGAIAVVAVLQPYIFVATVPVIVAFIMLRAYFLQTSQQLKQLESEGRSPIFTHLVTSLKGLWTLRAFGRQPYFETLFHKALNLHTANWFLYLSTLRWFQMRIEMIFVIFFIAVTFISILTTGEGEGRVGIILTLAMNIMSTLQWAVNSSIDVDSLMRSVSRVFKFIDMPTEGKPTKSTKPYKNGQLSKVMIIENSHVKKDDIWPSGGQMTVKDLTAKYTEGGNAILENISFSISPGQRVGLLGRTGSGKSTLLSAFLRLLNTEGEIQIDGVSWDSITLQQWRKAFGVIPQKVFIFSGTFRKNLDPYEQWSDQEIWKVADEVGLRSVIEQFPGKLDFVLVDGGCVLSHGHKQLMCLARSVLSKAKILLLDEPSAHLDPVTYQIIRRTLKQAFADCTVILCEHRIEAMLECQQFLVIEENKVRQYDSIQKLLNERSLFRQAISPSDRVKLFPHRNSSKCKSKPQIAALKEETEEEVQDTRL

This experiment addresses T1, CFTR (Homo sapiens, UniProt P13569).
T1 construct: host or cells: Human colonic T84 cells
Briefly: T84 assay (FLIPR membrane potential, forskolin/IBMX-stimulated CFTR channel activity). It is filed as cell-based. The conditions noted are these: Human colonic T84 cells; average of at least 2 runs unless annotated n = 1. How it is done: (§1) For example, Human colonic T84 cells can be acquired from the European Collection of Cell Cultures (ECACC) and grown in standard culture conditions as described by the supplier. On the day before assay 25,000 T84 cells per well are plated into standard black walled, clear bottom 384-well assay plates in standard growth medium consisting of DMEM:F12 with 10% FBS and incubated overnight. On the day of the assay the plates are washed using a standard assay buffer (HBSS with 10 mM Hepes) and incubated for 15 minutes in serum free cell culture medium before the addition of a commercially available membrane potential sensitive fluorescent dye (FLIPR Red membrane potential dye, Molecular Devices Corporation). T84 cells are incubated with the FLIPR Red membrane potential dye for 45 minutes in the presence and absence of test compound before being transferred to a commercially available fluorescence imaging plate reader (FLIPR384, Molecular Devices Corporation). Fluorescence levels are monitored continuously every second for 150 seconds; after an initial 10 second baseline, CFTR channel activity is stimulated through the addition of 10 μM forskolin in the presence of 100 μM of the phosphodiesterase inhibitor iso-butyl-methylxanthine (IBMX). Addition of the forskolin leads to the activation of intracellular adenylyl cylase 1, elevating cAMP levels and results in the phosphorylation and opening of CFTR anion channels. CFTR channel opening causes chloride ion efflux and subsequent depolarization of the cells, which is measured by an increase in fluorescence. CFTR inhibitor compounds prevent cell depolarization and the associated increase in fluorescence.
as §1, with “Human colonic” for “For example, Human colonic”, “T84 cells are acquired from” for “T84 cells can be acquired from”, “(ECACC) and are grown in” for “(ECACC) and grown in”
`Oc1c(Cl)cc(-c2cc(N3CCN(Cc4cccc(C(F)(F)F)c4)CC3)c(OCCc3ccc(Cl)cc3)nn2)cc1Cl` [Compound 1, 2,6-dichloro-4-(6-(4-chlorophenethoxy)-5-(4-(3-(trifluoromethyl)benzyl)piperazin-1-yl)pyridazin-3-yl)phenol] showed an IC50 of 27 µM.
In the case of `CN(C)CCCOc1ccc(CN2CCN(c3cc(-c4cc(Cl)c(O)c(Cl)c4)nnc3OCCc3ccc(Cl)cc3)CC2)cc1` [Compound 2, 2,6-Dichloro-4-(6-(4-chlorophenethoxy)-5-(4-(4-(3-(dimethylamino)propoxy)benzyl)piperazin-1-yl)pyridazin-3-yl)phenol] it was 1.8 µM; in that of `O=C(Cc1ccccn1)N1CCN(c2cc(-c3cc(Cl)c(O)c(Cl)c3)nnc2OCCc2ccc(Cl)cc2)CC1` [Compound 3, 1-(4-(3-(4-Chlorophenethoxy)-6-(3,5-dichloro-4-hydroxyphenyl)pyridazin-4-yl)piperazin-1-yl)-2-(pyridin-2-yl)ethanone], 18.1 µM.
On to `CS(=O)(=O)Nc1ccc(CNC(=O)c2cc(-c3cc(Cl)c(O)c(Cl)c3)nnc2OCCc2ccc(Cl)cc2)cc1` [Compound 4, 3-(4-Chlorophenethoxy)-6-(3,5-dichloro-4-hydroxyphenyl)-N-(4-(methylsulfonamido)benzyl)pyridazine-4-carboxamide], for which the IC50 came to 17.5 µM.
`CCN1CCN(c2cc(-c3cc(Cl)c(O)c(Cl)c3)nnc2OCCc2ccc(Cl)cc2)CC1` [Compound 5, 2,6-dichloro-4-(6-(4-chlorophenethoxy)-5-(4-ethylpiperazin-1-yl)pyridazin-3-yl)phenol] displayed a half-maximal inhibitory concentration (IC50) of 15.8 µM.
With `O=C(NCc1cccc(C(F)(F)F)c1)c1cc(-c2cc(Cl)c(O)c(Cl)c2)nnc1OCCc1ccc(Cl)cc1` [Compound 6, 3-(4-chlorophenethoxy)-6-(3,5-dichloro-4-hydroxyphenyl)-N-(3-(trifluoromethyl)benzyl)pyridazine-4-carboxamide], the concentration for half-maximal inhibition (IC50) worked out at 24.7 µM.
In the case of `O=C(NCc1ccc(C(F)(F)F)cc1)c1cc(-c2cc(Cl)c(O)c(Cl)c2)nnc1OCCc1ccc(Cl)cc1` [Compound 7, 3-(4-chlorophenethoxy)-6-(3,5-dichloro-4-hydroxyphenyl)-N-(4-(trifluoromethyl)benzyl)pyridazine-4-carboxamide] it was 16.5 µM; in that of `O=C(NCc1cc(F)cc(F)c1)c1cc(-c2cc(Cl)c(O)c(Cl)c2)nnc1OCCc1ccc(Cl)cc1` [Compound 8, 3-(4-chlorophenethoxy)-6-(3,5-dichloro-4-hydroxyphenyl)-N-(3,5-difluorobenzyl)pyridazine-4-carboxamide], 13 µM; in that of `O=C(NCc1cc(F)c(F)c(F)c1)c1cc(-c2cc(Cl)c(O)c(Cl)c2)nnc1OCCc1ccc(Cl)cc1` [Compound 9, 3-(4-chlorophenethoxy)-6-(3,5-dichloro-4-hydroxyphenyl)-N-(3,4,5-trifluorobenzyl)pyridazine-4-carboxamide], 8.06 µM.
In the case of `O=C(c1cc(-c2cc(Cl)c(O)c(Cl)c2)nnc1OCCc1ccc(Cl)cc1)N(CCO)Cc1ccc(F)cc1` [Compound 10, 3-(4-chlorophenethoxy)-6-(3,5-dichloro-4-hydroxyphenyl)-N-(4-fluorobenzyl)-N-(2-hydroxyethyl)pyridazine-4-carboxamide] it was 12.1 µM; in that of `O=C(c1cc(-c2cc(Cl)c(O)c(Cl)c2)nnc1OCCc1ccc(Cl)cc1)N(CCO)Cc1ccccc1Cl` [Compound 12, N-(2-chlorobenzyl)-3-(4-chlorophenethoxy)-6-(3,5-dichloro-4-hydroxyphenyl)-N-(2-hydroxyethyl)pyridazine-4-carboxamide], 10.3 µM; in that of `CCCN(CCO)C(=O)c1cc(-c2cc(Cl)c(O)c(Cl)c2)nnc1OCCc1ccc(Cl)cc1` [Compound 13, 3-(4-chlorophenethoxy)-6-(3,5-dichloro-4-hydroxyphenyl)-N-(2-hydroxyethyl)-N-propylpyridazine-4-carboxamide], 28.6 µM.
`Oc1c(Cl)cc(-c2cc(N3CCN(Cc4ccc(OCCN5CCOCC5)cc4)CC3)c(OCCc3ccc(Cl)cc3)nn2)cc1Cl` [Compound 14, 2,6-dichloro-4-(6-(4-chlorophenethoxy)-5-(4-(4-(2-morpholinoethoxy)benzyl)piperazin-1-yl)pyridazin-3-yl)phenol]: the IC50 stood at 9.45 µM.
`CN(C)CCOc1ccc(CN2CCN(c3cc(-c4cc(Cl)c(O)c(Cl)c4)nnc3OCCc3ccc(Cl)cc3)CC2)cc1` [Compound 15, 2,6-dichloro-4-(6-(4-chlorophenethoxy)-5-(4-(4-(2-(dimethylamino)ethoxy)benzyl)piperazin-1-yl)pyridazin-3-yl)phenol] displayed an IC50 of 3.05 µM.
The value for `CN(C)CCCOc1cccc(CN2CCN(c3cc(-c4cc(Cl)c(O)c(Cl)c4)nnc3OCCc3ccc(Cl)cc3)CC2)c1` [Compound 16, 2,6-dichloro-4-(6-(4-chlorophenethoxy)-5-(4-(3-(3-(dimethylamino)propoxy)benzyl)piperazin-1-yl)pyridazin-3-yl)phenol] was 9.85 µM; that for `CN(C)CCCOc1ccccc1CN1CCN(c2cc(-c3cc(Cl)c(O)c(Cl)c3)nnc2OCCc2ccc(Cl)cc2)CC1` [Compound 17, 2,6-dichloro-4-(6-(4-chlorophenethoxy)-5-(4-(2-(3-(dimethylamino)propoxy)benzyl)piperazin-1-yl)pyridazin-3-yl)phenol] was 3.8 µM.
Compound `Oc1c(Cl)cc(-c2cc(N3CCN(Cc4ccc(OCCCN5CCC(F)(F)CC5)cc4)CC3)c(OCCc3ccc(Cl)cc3)nn2)cc1Cl` [Compound 18, 2,6-dichloro-4-(6-(4-chlorophenethoxy)-5-(4-(4-(3-(4,4-difluoropiperidin-1-yl)propoxy)benzyl)piperazin-1-yl)pyridazin-3-yl)phenol] yielded an IC50 of 7.5 µM.
Compound `Oc1c(Cl)cc(-c2cc(N3CCN(Cc4ccc(OCCCN5CCSCC5)cc4)CC3)c(OCCc3ccc(Cl)cc3)nn2)cc1Cl` [Compound 19, 2,6-dichloro-4-(6-(4-chlorophenethoxy)-5-(4-(4-(3-thiomorpholinopropoxy)benzyl)piperazin-1-yl)pyridazin-3-yl)phenol] returned an IC50 of 17 µM.
As to `CCN(Cc1ccccc1)C(=O)c1cc(-c2cc(Cl)c(O)c(Cl)c2)nnc1N(CC)Cc1ccccc1` [Compound 20, N-benzyl-3-(benzyl(ethyl)amino)-6-(3,5-dichloro-4-hydroxyphenyl)-N-ethylpyridazine-4-carboxamide], 12 µM corresponded to half-maximal inhibition (IC50).
Regarding `NC(=O)C1CCN(CCCOc2ccc(CN3CCN(c4cc(-c5cc(Cl)c(O)c(Cl)c5)nnc4OCCc4ccc(Cl)cc4)CC3)cc2)CC1` [Compound 21, 1-(3-(4-((4-(3-(4-chlorophenethoxy)-6-(3,5-dichloro-4-hydroxyphenyl)pyridazin-4-yl)piperazin-1-yl)methyl)phenoxy)propyl)piperidine-4-carboxamide], the IC50 was determined as 7.33 µM.
The value for `CN1CCN(CCOc2ccc(CN3CCN(c4cc(-c5cc(Cl)c(O)c(Cl)c5)nnc4OCCc4ccc(Cl)cc4)CC3)cc2)CC1` [Compound 22, 2,6-dichloro-4-(6-(4-chlorophenethoxy)-5-(4-(4-(2-(4-methylpiperazin-1-yl)ethoxy)benzyl)piperazin-1-yl)pyridazin-3-yl)phenol] was 13.2 µM.

By IC50 is commonly meant the concentration needed to halve the response being measured. A high value points to weaker potency.
